Structures are written as SMILES.

What is called inhibition is the percentage by which the read-out fell short of the control.

Assay [1] concerns the target T1, human recombinant adrenergic α2A receptor (Homo sapiens, UniProt P08913).
T1 construct: expressed in transfected cells; host or cells: insect Sf9 cells
T1 sequence (P08913 1-465): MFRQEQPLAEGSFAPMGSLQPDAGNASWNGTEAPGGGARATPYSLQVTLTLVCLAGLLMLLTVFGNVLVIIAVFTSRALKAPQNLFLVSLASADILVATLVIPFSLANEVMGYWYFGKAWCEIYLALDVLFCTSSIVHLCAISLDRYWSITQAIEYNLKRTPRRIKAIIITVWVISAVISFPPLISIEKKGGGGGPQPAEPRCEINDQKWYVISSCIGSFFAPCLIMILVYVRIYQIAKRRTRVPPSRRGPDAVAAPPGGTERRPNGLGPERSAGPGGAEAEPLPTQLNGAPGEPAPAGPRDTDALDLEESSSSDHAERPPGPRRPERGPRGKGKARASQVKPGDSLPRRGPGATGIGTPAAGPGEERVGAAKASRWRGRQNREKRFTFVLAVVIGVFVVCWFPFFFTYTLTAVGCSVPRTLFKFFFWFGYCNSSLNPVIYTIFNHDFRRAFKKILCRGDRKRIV
The experiment in a line: Adrenergic α2A radioligand binding ([3H]MK-912). The note with it: 0.1 μM compound; for inhibition at 0.1 µM: read-out: Percentage inhibition of ligand binding, Adrenergic α2A; for Percentage inhibition of ligand binding, Adrenergic α2A: 0.1 µM. Here is the method:
To evaluate in radioligand binding assays the activity of compounds of the invention, human recombinant adrenergic α2A receptor expressed in insect Sf9 cells (Uhlen, S. et al, J. Pharmacol. Exp. Ther. 271:1558, 1994) in a modified Tris-HCl buffer (50 mM Tris-HCl, pH 7.4, 12.5 mM MgCl2, 2 mM EDTA) was used. Compounds of invention were incubated with 1 nM [^3H]MK-912 for 60 min at 25° C. MK-912 is (2S-trans)-1,3,4,5′,6,6′,7,12b-octahydro-1′,3′-dimethyl-spiro[2H-benzofuro[2,3-a]quinolizine-2,4′(1′H)-pyrimidin]-2′(3′H)-one hydrochloride Non-specific binding was estimated in the presence of 10 μM WB-4101 (2-(2,6-Dimethoxyphenoxyethyl)aminomethyl-1,4-benzodioxane hydrochloride). Receptor proteins were filtered and washed, the filters were then counted to determine [^3H]MK-912 specifically bound. Compounds were screened at 1 μM or lower, using 1% DMSO as vehicle. Biochemical assay results are presented as the percent inhibition of specific binding in Table 3.

Assay [2] has as its target T2, human recombinant serotonin (5-Hydroxytryptamine) 5-HT2A receptor (Homo sapiens, UniProt P28223).
T2 construct: expressed in transfected cells; host or cells: CHO-K1
As to the kind of experiment: Serotonin 5-HT2A radioligand binding ([3H]Ketanserin). To be noted: 0.1 μM compound; read-out: Percentage inhibition of ligand binding, Serotonin 5-HT2A. Here is the method: To evaluate in radioligand binding assays the activity of compounds of the invention, human recombinant serotonin (5-Hydroxytryptamine) 5-HT2A receptor expressed in Chinese hamster ovary (CHO) K1 cells (Bonhaus, D. et al, Br. J. Pharmacol. 115:622, 1995; Saucier, C. et al, J. Neurochem. 68:1998, 1997) in a 50 mM Tris-HCl buffer, pH 7.4, was used. Compounds of the invention were incubated with 0.5 nM [^3H]Ketanserin for 60 min at 25° C. Non-specific binding was estimated in the presence of 1 μM Mianserin. Receptor proteins were filtered and washed, the filters were then counted to determine [^3H]Ketanserin specifically bound. Compounds were screened at 1 μM or lower, using 1% DMSO as vehicle. Biochemical assay results are presented as the percent inhibition of specific binding in Table 5.

The target in assay [3] is T3, human recombinant serotonin (5-Hydroxytryptamine) 5-HT2C receptor (Homo sapiens, UniProt P28335).
T3 construct: expressed in transfected cells; host or cells: CHO-K1
T3 sequence (P28335 33-458): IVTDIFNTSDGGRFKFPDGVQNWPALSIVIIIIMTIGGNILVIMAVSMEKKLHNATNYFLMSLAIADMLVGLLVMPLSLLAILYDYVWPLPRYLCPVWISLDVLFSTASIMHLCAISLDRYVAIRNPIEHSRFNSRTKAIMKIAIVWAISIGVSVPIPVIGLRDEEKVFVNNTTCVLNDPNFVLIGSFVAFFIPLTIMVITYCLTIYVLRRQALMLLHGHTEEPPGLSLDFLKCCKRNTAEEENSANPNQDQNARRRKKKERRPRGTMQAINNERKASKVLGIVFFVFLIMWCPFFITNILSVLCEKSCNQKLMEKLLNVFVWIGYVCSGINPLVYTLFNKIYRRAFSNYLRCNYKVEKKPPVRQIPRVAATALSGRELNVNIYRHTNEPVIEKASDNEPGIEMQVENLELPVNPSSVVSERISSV
As to the kind of experiment: Serotonin 5-HT2C radioligand binding ([3H]Mesulergine). To be noted: 0.1 μM compound; for inhibition at 0.1 µM: read-out: Percentage inhibition of ligand binding, Serotonin 5-HT2C; for Percentage inhibition of ligand binding, Serotonin 5-HT2C: 0.1 µM. Here is the method: To evaluate in radioligand binding assays the activity of compounds of the invention, human recombinant serotonin (5-Hydroxytryptamine) 5-HT2C receptor expressed in Chinese hamster ovary (CHO) K1 cells (Wolf, W. et al, J. Neurochem. 69:1449, 1997) in a modified Tris-HCl buffer (50 mM Tris-HCl, pH 7.4, 0.1% Ascorbic Acid, 10 μM Pargyline) was used. Compounds of the invention were incubated with 1 nM [^3H]Mesulergine for 60 min at 25° C. Non-specific binding was estimated in the presence of 1 μM Mianserin. Receptor proteins were filtered and washed, the filters were then counted to determine [^3H]Mesulergine specifically bound. Compounds were screened at 1 μM or lower, using 1% DMSO as vehicle. Biochemical assay results are presented as the percent inhibition of specific binding in Table 5.

Assay [4] addresses T4, human recombinant dopamine D2L receptor (Homo sapiens, UniProt P14416).
T4 construct: expressed in transfected cells; host or cells: CHO
As to the kind of experiment: Dopamine D2L radioligand binding ([3H]Spiperone). The note with it: 1 μM compound; read-out: Percentage inhibition of ligand binding, Dopamine D2L. Here is the method: To evaluate in radioligand binding assays the activity of compounds of the invention, human recombinant dopamine D2L receptor expressed in Chinese hamster ovary (CHO) cells (Grandy, D. et al, Proc. Natl. Acad. Sci. USA. 86:9762, 1989; Hayes, G. et al, Mol. Endocrinol. 6:920, 1992) in a modified Tris-HCl buffer (50 mM Tris-HCl, pH 7.4, 1.4 mM Ascorbic Acid, 0.001% BSA, 150 mM NaCl) was used. Compounds of the invention were incubated with 0.16 nM [^3H]Spiperone for 120 min at 25° C. Non-specific binding was estimated in the presence of 10 μM Haloperidol. Receptor proteins were filtered and washed, the filters were then counted to determine [^3H]Spiperone specifically bound. Compounds were screened at 1 μM or lower, using 1% DMSO as vehicle. Biochemical assay results are presented as the percent inhibition of specific binding in Table 4.

T4 sequence (P14416 whole entry): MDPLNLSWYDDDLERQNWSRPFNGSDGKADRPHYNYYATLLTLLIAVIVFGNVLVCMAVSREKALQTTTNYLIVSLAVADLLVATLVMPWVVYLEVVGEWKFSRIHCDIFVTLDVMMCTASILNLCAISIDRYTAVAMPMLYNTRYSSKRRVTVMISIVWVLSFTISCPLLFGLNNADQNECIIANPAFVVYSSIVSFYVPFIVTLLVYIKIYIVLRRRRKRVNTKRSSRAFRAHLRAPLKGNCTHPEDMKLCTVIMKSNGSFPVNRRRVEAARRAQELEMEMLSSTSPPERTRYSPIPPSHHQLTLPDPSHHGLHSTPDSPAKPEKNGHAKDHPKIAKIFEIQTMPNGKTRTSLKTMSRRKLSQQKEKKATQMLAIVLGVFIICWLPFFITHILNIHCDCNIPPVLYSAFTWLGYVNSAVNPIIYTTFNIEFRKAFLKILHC
T2 sequence (P28223 whole entry): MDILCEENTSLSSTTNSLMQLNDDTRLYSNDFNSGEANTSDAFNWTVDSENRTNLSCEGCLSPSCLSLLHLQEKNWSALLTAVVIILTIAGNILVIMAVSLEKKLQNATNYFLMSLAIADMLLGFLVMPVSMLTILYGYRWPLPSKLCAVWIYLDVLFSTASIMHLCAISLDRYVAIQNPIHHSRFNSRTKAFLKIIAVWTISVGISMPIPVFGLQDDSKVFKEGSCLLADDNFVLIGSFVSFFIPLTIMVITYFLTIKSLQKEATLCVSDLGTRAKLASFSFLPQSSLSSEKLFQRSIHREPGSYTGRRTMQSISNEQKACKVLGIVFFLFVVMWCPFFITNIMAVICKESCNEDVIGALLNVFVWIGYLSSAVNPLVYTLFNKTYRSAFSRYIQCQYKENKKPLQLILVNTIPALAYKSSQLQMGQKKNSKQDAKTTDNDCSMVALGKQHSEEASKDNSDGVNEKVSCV

Turning to `Cc1ccc2c(c1)c1c(n2/C=C2/CCCc3ccccc32)CCN(C)C1` [i-2], the values for the inhibition at 0.1 µM in assay [1], in assay [2] and in assay [3] were 98%, 99% and 100%, respectively. In assay [4], the inhibition at 1 µM stood at 47%.

`Cc1ccc2c(c1)c1c(n2CC2(O)CCCc3cnccc32)CCN(C)C1` (single isomer, unassigned) [ii-74a]: in assay [1], the inhibition at 0.1 µM was found to be 14%. Moreover, the “Percentage inhibition of ligand binding, Serotonin 5-HT2C” value in assay [3] came to 28%.

`Cc1ccc2c(c1)c1c(n2CC2(O)CCCc3ccncc32)CCN(C)C1` (single isomer, unassigned) [ii-113a]: the inhibition at 0.1 µM in assay [1] amounted to 9%; in assay [3], 37%.

On to `Cc1ccc2c(c1)c1c(n2/C=C2\CCCc3ccccc32)CCN(C)C1` [i-3], for which the inhibition at 0.1 µM was determined as 92% in assay [1], 100% in assay [2] and 100% in assay [3]. Also, the inhibition at 1 µM in assay [4] was 49%.

Consider `Cc1ccc2c(c1)c1c(n2CC2(O)CCCc3ncccc32)CCN(C)C1` (single isomer, unassigned) [ii-112b], for which, in assay [1], the “Percentage inhibition of ligand binding, Adrenergic α2A” value (“Percentage inhibition … Adrenergic α2A” below) worked out at 4%. The “Percentage inhibition of ligand binding, Serotonin 5-HT2C” value in assay [3] is 37%.

As for `Cc1ccc2c(c1)c1c(n2CC2(O)CCCc3cnccc32)CCN(C)C1` (single isomer, unassigned) [ii-74b], in assay [1], the “Percentage inhibition … Adrenergic α2A” value is 12%. For the same molecule, the “Percentage inhibition of ligand binding, Serotonin 5-HT2C” value in assay [3] is 53%.

For `Cc1ccc2c(c1)c1c(n2CC2(O)CCCc3ncccc32)CCN(C)C1` (single isomer, unassigned) [ii-112a], the “Percentage inhibition … Adrenergic α2A” value in assay [1] is reported as 15%. Moreover, the inhibition at 0.1 µM in assay [3] is 42%.

The values are drawn from patent US9035056B2, “Pyrido[4,3-b]indole and pyrido[3,4-b]indole derivatives and methods of use” (Medivation Technologies, Inc., priority 2011, dated 2015).
